Measured values as given in PubChem BioAssay (NCI).
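Exposure lasted 48 hours, with cells grown in 96-well plates and compounds tested at five concentrations. The concentration for 50% growth inhibition is given as GI50. At the TGI there is no net growth.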

Tests used:
Assay in all cases: growth of human tumour cells (NCI), 48 h
[1] = test system: OVCAR-4 ovarian
[2] = test system: MOLT-4 leukemia
[3] = test system: HT29 colon
[4] = test system: RPMI-8226 leukemia
[5] = test system: IGROV1 ovarian
[6] = test system: CAKI-1 renal
[7] = test system: U251 CNS
[8] = test system: SK-MEL-2 melanoma

Structure (SMILES)	GI50 [1] [µM]	TGI [1] [µM]	GI50 [2] [µM]	TGI [2] [µM]	GI50 [3] [µM]	TGI [3] [µM]	GI50 [4] [µM]	TGI [4] [µM]	GI50 [5] [µM]	TGI [5] [µM]	GI50 [6] [µM]	TGI [6] [µM]	GI50 [7] [µM]	TGI [7] [µM]	GI50 [8] [µM]	TGI [8] [µM]
CC(N)C(Cc1ccc(Cl)cc1)c1ccc(Cl)cc1 (centres undefined)	11.4	25.7	13.6	31.4	3.29	13.6	6.48	22.2	4.89	18.7	11.8	24.1	12.3	25.9	13	27
NS(=O)(=O)c1ccc(Nc2cc(-c3cccc(O)c3)[nH]n2)cc1	13.5	> 25	13.4	> 25	> 25	> 25	> 25	> 25	> 25	> 25	> 25	> 25	24.4	> 25	> 25	> 25
c1ccc([P+](CCSCCSCC[P+](c2ccccc2)(c2ccccc2)c2ccccc2)(c2ccccc2)c2ccccc2)cc1		> 100		> 100		> 100				> 100				> 100		> 100
Cc1cccc(N(C)C(=O)[C@@H]2[C@H](O)CCN2c2nc(C)cc(C(F)(F)F)c2C#N)c1	18.7	> 100	1.98	53.8	15.6	49.1	16.3	41.6	26.5	94.5	29.1	> 100	28.8	> 100	15.9	35
COc1ccc2c(c1)/C(=C\c1c(-c3cc(OC)ccc3OC)nc3sc(C)cn13)C(=O)N2C	20.9	> 100	14.1	51.8			9.13	58.4	19.4	> 100	18.3	86	39.7	> 100	17.3	38.5
COC(=O)c1n[nH]c(C)c1N=NN(C)CCC#N		30.7		15.1		87.8		34.9		93.6		33.4		41.5		61.9
CCN(Cc1ccc(C)cc1)c1ccc(CO)c(Cl)c1	0.274	4.11	17	45.4	2.49	14.7	3.32	30.6	0.108	0.938	0.721	9.27	0.867	14.5	2.2	16.2
CC1=CC(=O)C2=C(C)CCC3C(C)C(=O)OC3C12 (centres undefined)		> 100		> 100		> 100		> 100		> 100		> 100		> 100		> 100
CCN(CC)c1ccc(/C=N/NC(=O)CSc2nc3ccccc3c(=O)n2CCc2ccc(S(N)(=O)=O)cc2)c(O)c1	0.549	> 100	0.653	> 100	8.93	> 100	0.417	2.44	1.48	> 100	1.84	> 100	1.44	> 100	4.34	> 100
O=C(Nc1ccc2[nH]nc(-c3ccncc3)c2c1)[C@@H]1CCN(CC(=O)N2CCN(c3ccc(-c4ncccn4)cc3)CC2)C1	5.91	> 100	5.22	> 80.6	0.0335	> 100	4.29	> 66.7	0.964	> 100			0.613	18.9	0.0269	0.223
CC(=O)c1ccc2c(c1)c1cc(C(C)=O)ccc1n2CCNC(C)C	0.37	2.9	0.337	1.79	0.342	2.18	0.308	1.05	0.341	6.73	0.304	10.5	0.386	6.05	0.569	2.23
C/C(=N\NC(=S)N1CCCCC1)c1ccccn1	< 0.01	4.57	0.0175	1.69	< 0.01	4.06	0.016	0.849	< 0.01	5.79	0.103	5.22	< 0.0105	10.6	0.702	3.8
COc1ccc(C(c2cc(OC)c(OC)c(OC)c2)n2ccnc2)cc1O (centres undefined)	3.44	> 100	0.565	> 100	0.312	1.02	0.385	> 100	0.862	> 100	0.68	> 100	0.391	> 100		
COC[C@@H](N=C1NC(=O)/C(=C/c2ccc3ncccc3c2)S1)c1ccccc1	5.16	> 25	8.88	> 25	8.83	> 25	6.13	20.7	12.9	> 25	6.2	> 22.4	4.32	> 25	8.19	17.2
O=C(Cc1ccc(/C=C/C(=O)c2ncc[nH]2)cc1)Nc1ccc(F)cc1	9.14	> 33.3	5.74	> 33.3	1.15	4.45	1.27	7.46	2.66	13.9			1.2	4.5	7.47	19
O=c1c2c(=NCCN3CCCC3)cc3c(=O)n(CCCN4CCOCC4)c(=O)c4c(-c5ccc(CN6CCCC6)cc5)cc(c(O)n1CCCN1CCOCC1)c2c4-3	0.0491	0.23	< 0.0206	5.37	< 0.0115	0.413	0.0368	0.409	0.0399	1.47	0.0346	0.651	0.0412	1.36	0.112	0.382
O=C1CSCc2sccc21		> 100		> 100		> 100				> 100		> 100		> 100		> 100
